In publication PMC7377239, “Cardiovascular Effects of Polychlorinated Biphenyls and Their Major Metabolites” (Environmental Health Perspectives, 2020):
Like-named read-outs stand apart in the source and are kept apart here.

Assays:
[1] = tested on: iCell endothelial cells (human iPSC-derived ECs); assay: Tube formation (tubulogenesis) assay in iCell endothelial cells, 18 h; type: cell-based; conditions: Homo sapiens, Endothelial cell, iPSC-EC tube formation, 18 hr; for activity at 0.1 µM: 0.10 µM; for minimal effective concentration: top concentration 100.00 µM
Protocol: (§1) The culture conditions of iCell®-endothelial cells were as reported elsewhere ([Iwata et al. 2017]). Briefly, T75 flasks were coated with a fibronectin solution ( 3 μg/cm^2 ) followed by incubation for 1–2 h. Cells were thawed for 3 min in a 37°C water bath. Thawed cells were added to maintenance medium made of VascuLife VEGF Medium Complete Kit, excluding the supplied FBS, and iCell® Endothelial Cells Medium Supplement. The final formulation of the maintenance medium is detailed in ([Iwata et al. 2017]). The aliquoted fibronectin solution was aspirated from the T75 flasks, and cells were seeded at 1.0×10^4 cells/cm^2 . Cells were maintained at 37°C and 5% CO2 with media changes occurring every 2 d and passaged every 3–4 d using TrypLE™ Express. All experiments were conducted on cells between passages 1 and 5.
Tube formation assays were performed on Geltrex™ LDEV-free reduced growth factor basement membrane using both iCell®-endothelial cells and HUVECs in 384-well format exactly as detailed in Iwata et al. ([2017]). Negative controls included media-only and vehicle control (i.e., 0.5% vol/vol DMSO in cell culture media) wells. Positive assay controls were consistent with previously published reports ([Iwata et al. 2017]) and included TAB ( 50μM ) as a cytotoxic control, and nocodazole ( 0.01–1μM ), suramin ( 0.5–50μM ), histamine ( 0.1–100μM ), and chloroquine ( 1–500μM ) as chemicals associated with specific effects on ECs. Each test chemical was screened in triplicate for each concentration. Briefly, for iCell®-endothelial cells, starvation media consisted of VascuLife® basal medium with 4 mM L-glutamine LifeFactor and 0.1% iCell®-endothelial cells medium supplement. To counter dilution effects, a 2× concentration of the HUVEC maintenance medium supplemented with additional VEGF was created (EGM™-2 BulletKits™ at 2× concentration; also the VEGF component was replaced with 12.5 ng/mL VEGF). Geltrex™ LDEV-free reduced growth factor basement membrane was thawed overnight and dispensed into 384-well plates ( 10μL/well ) with tapping and rotating to evenly coat. The plates were incubated for 1 h in a cell culture incubator at 37°C and 5% CO2 . A 2× PCB plate (containing all of the PCBs and metabolites in dose–response) was prepared in basal media and added, 25μL per well, to the Geltrex™ coated plates. On separate plates, cells were seeded 7,500 (iPSC- ECs) or 3,500 (HUVEC) cells/well. Cells were exposed to chemicals overnight at 37°C and 5% CO2 and stained with 3× concentration of calcein AM ( 25μL /well, 6μmol/L ) for 15 min before imaging. Images were captured at 4× magnification with the FITC filter (calcein AM). Images were analyzed with the angiogenesis module software within MetaXpress™ (Molecular Devices).
(§2) Phenotypic responses were quantitatively assessed using concentration–response modeling as detailed elsewhere ([Sirenko et al. 2017]). Briefly, phenotypic readouts were normalized to vehicle controls and fit to a four-parameter logistic model in R studio software (version 3.1.1; R Development Core Team). Following EPA guidance on dose–response modeling, a cutoff of one standard deviation across means of vehicle control (i.e., 0.5% vol/vol DMSO in cell culture media) wells was applied to determine the point-of-departure (POD) values ([U.S. EPA 2012]). In the absence of a concentration–response, the highest tested concentration (i.e., 100μM ) was assigned as “no observable adverse effect level.” The concentration–response assessment R script, as well as templates for vehicle and concentration–response data, are available as a supplement to Sirenko et al. ([2017]). The ability of physicochemical properties to predict differences in PODs were evaluated by multiregression and mixed-effects modeling using R.

[2] = tested on: iCell endothelial cells (human iPSC-derived ECs); assay: High-content imaging cytotoxicity in iCell endothelial cells, 24 h; type: cell-based; conditions: Homo sapiens, Endothelial cell, iPSC-EC, 24 hr; for viability at 0.1 µM / activity at 0.1 µM: 0.10 µM; for minimal effective concentration: top concentration 100.00 µM
Protocol: as §1
Cytotoxicity was assessed in parallel experiments. For iCell®-endothelial cells, 384-well plates were coated with a 30μg/mL fibronectin solution ( 10μL/well ) and incubated for 2 h at RT. iCell®-endothelial cells were dissociated with TrypLE™ Express and prepared into a solution to achieve 750 cells per well and 50μL of total volume. The fibronectin solution was removed from the 384-well plate, and cells were plated. For HUVECs, similar dissociation and the same cell density were used for plating with the exclusion of the fibronectin solution. Cells were incubated at 37°C and 5% CO2 until a monolayer was formed, typically 3–5 d. 2×PCB plates were created with the requisite maintenance medium. Before treatment, the medium in the wells was exchanged to 25μL/well of fresh maintenance medium. 2×PCB chemical solutions ( […] ) were added. After 24 h incubation at 37°C and 5% CO2 , cells were stained with Hoechst 33342, MitoTracker™ Orange, and calcein AM for 20 min before replacing the staining media with FluoroBright DMEM. Cell culture plates were imaged using the ImageXpress® Micro Confocal high-content imaging system (Molecular Devices). Images were acquired at 10× magnification with DAPI, TRITC, or FITC filter (Hoechst 33342, MitoTracker™, or calcein AM, respectively). The multiwavelength cell scoring applications module in MetaXpress™ (Molecular Devices) was used to analyze the images.
as §2

[3] = 0.00 µM control = 100.00, read-out: endo.mtl.18hr
[4] = 0.00 µM control = 100.00, read-out: endo.tlps.18hr
[5] = 0.00 µM control = 100.00, read-out: endo.tta.18hr
[6] = 0.00 µM control = 100.00, read-out: endo.ttl.18hr
[7] = 0.00 µM control = 100.00, read-out: endo.cyto.24hr
[8] = 0.00 µM control = 100.00, read-out: endo.mito.24hr
[9] = 0.00 µM control = 100.00, read-out: endo.mitoint.24hr
[10] = 0.00 µM control = 100.00, read-out: endo.nma.24hr
[11] = 0.00 µM control = 100.00, read-out: endo.tc.24hrs

Oc1ccccc1-c1ccc(Cl)cc1 [2'-OH PCB3]
activity at 0.01 µM [1, 3]: 114%
activity at 0.01 µM [1, 4]: 123%
activity at 0.01 µM [1, 5]: 120%
activity at 0.01 µM [1, 6]: 113%
activity at 0.1 µM [1, 3]: 106%
activity at 0.1 µM [1, 4]: 118%
activity at 0.1 µM [1, 5]: 103%
activity at 0.1 µM [1, 6]: 103%
activity at 1 µM [1, 3]: 100%
activity at 1 µM [1, 4]: 102%
activity at 1 µM [1, 5]: 99.3%
activity at 1 µM [1, 6]: 98.8%
activity at 10 µM [1, 3]: 91.1%
activity at 10 µM [1, 4]: 76.6%
activity at 10 µM [1, 5]: 98%
activity at 10 µM [1, 6]: 91.8%
activity at 100 µM [1, 3]: 54.3%
activity at 100 µM [1, 4]: 20.2%
activity at 100 µM [1, 5]: 18.5%
activity at 100 µM [1, 6]: 21.2%
minimal effective concentration ([1]; read-out: endo.mtl.18hr POD): 13.4 µM
minimal effective concentration ([1]; read-out: endo.tlps.18hr POD): 9.27 µM
minimal effective concentration ([1]; read-out: endo.tta.18hr POD): 29.9 µM
minimal effective concentration ([1]; read-out: endo.ttl.18hr POD): 23.1 µM
viability at 0.01 µM [2, 7]: 99.2%
activity at 0.01 µM [2, 8]: 99.4%
activity at 0.01 µM [2, 9]: 117%
activity at 0.01 µM [2, 10]: 98.3%
viability at 0.01 µM [2, 11]: 99.2%
viability at 0.1 µM [2, 7]: 96.5%
activity at 0.1 µM [2, 8]: 97%
activity at 0.1 µM [2, 9]: 101%
activity at 0.1 µM [2, 10]: 98.8%
viability at 0.1 µM [2, 11]: 96.5%
viability at 1 µM [2, 7]: 100%
activity at 1 µM [2, 8]: 100%
activity at 1 µM [2, 9]: 108%
activity at 1 µM [2, 10]: 96.4%
viability at 1 µM [2, 11]: 100%
viability at 10 µM [2, 7]: 103%
activity at 10 µM [2, 8]: 103%
activity at 10 µM [2, 9]: 124%
activity at 10 µM [2, 10]: 97%
viability at 10 µM [2, 11]: 103%
viability at 100 µM [2, 7]: 57.8%
activity at 100 µM [2, 8]: 61.3%
activity at 100 µM [2, 9]: 87.3%
activity at 100 µM [2, 10]: 89.5%
viability at 100 µM [2, 11]: 87%
minimal effective concentration ([2]; read-out: endo.cyto.24hr POD): 44.3 µM
minimal effective concentration ([2]; read-out: endo.mito.24hr POD): 44.3 µM
minimal effective concentration ([2]; read-out: endo.mitoint.24hr POD): 100 µM
minimal effective concentration ([2]; read-out: endo.nma.24hr POD): 1.82 µM
minimal effective concentration ([2]; read-out: endo.tc.24hrs POD): 68.2 µM
